Assay results taken from ChEMBL document CHEMBL6134838, “Discovery of c-Kit as a New Therapeutic Target in LPS-Induced Acute Lung Injury through Novel Phenylamide Derivative D9” (J Med Chem, 2025).

test system: J774.A1; test: cells; details: Mus musculus, J774.A1, 24 h
Description: Antiinflammatory activity against mouse J774.A1 cells assessed as inhibition of LPS-stimulated IL-6 release measured for 24 hrs by ELISA method

Work on `O=C(NCCCN1CCOCC1)c1cc(Oc2ccc(NC(=O)c3cn(-c4ccc(Br)cc4)c4ccccc4c3=O)cc2F)ccn1` yielded an IC50 of 6.16 µM.

test system: not listed separately; test: Cytotoxicity against mouse J774.A1 cells assessed as survival rate at 10 uM measured for 48 hrs by MTT assay relative to control; details: not given

Compared with `O=C(NCCCN1CCOCC1)c1cc(Oc2ccc(NC(=O)c3cn(-c4ccc(Br)cc4F)c4ccccc4c3=O)cc2)ccn1`, `O=C(NCCCN1CCOCC1)c1cc(Oc2ccc(NC(=O)c3cn(-c4ccc(Br)cc4F)c4ccccc4c3=O)cc2F)ccn1` is lower in viability at 48 h, 10 µM: 92.2% for the first, 90.7% for the second.

First: O=C(NCCCN1CCOCC1)c1cc(Oc2ccc(NC(=O)c3cn(-c4ccccc4)c4ccccc4c3=O)cc2)ccn1
Second: O=C(NCCCN1CCOCC1)c1cc(Oc2ccc(NC(=O)c3cn(-c4ccc(Br)cc4)c4ccccc4c3=O)cc2)ccn1
The viability at 48 h, 10 µM of the first is lower: 82.7% for the first, greater than 100% for the second.

First: O=C(NCCc1cccs1)c1cc(Oc2ccc(NC(=O)c3cn(-c4ccc(Br)cc4)c4ccccc4c3=O)cc2)ccn1
Second: O=C(NCCc1cccs1)c1cc(Oc2ccc(NC(=O)c3cn(-c4ccc(Cl)cc4)c4ccccc4c3=O)cc2)ccn1
The viability at 48 h, 10 µM of the first is lower: 84.4% for the first, 86.2% for the second.

First: O=C(NCCCN1CCOCC1)c1cc(Oc2ccc(NC(=O)c3cn(-c4ccc(F)c(Cl)c4)c4ccccc4c3=O)cc2F)ccn1
Second: O=C(NCCCN1CCOCC1)c1cc(Oc2ccc(NC(=O)c3cn(-c4ccc(Cl)cc4)c4ccccc4c3=O)cc2F)ccn1
The viability at 48 h, 10 µM of the first is higher: greater than 100% for the first, 77.8% for the second.

First: O=C(NCCc1cccs1)c1cc(Oc2ccc(NC(=O)c3cn(-c4ccc(Br)cc4)c4ccccc4c3=O)cc2F)ccn1
Second: O=C(NCCc1cccs1)c1cc(Oc2ccc(NC(=O)c3cn(-c4ccc(Cl)cc4)c4ccccc4c3=O)cc2F)ccn1
The viability at 48 h, 10 µM of the first is higher: 84.3% for the first, 7.46% for the second.

Going from `O=C(NCCc1cccs1)c1cc(Oc2ccc(NC(=O)c3cn(-c4ccccc4)c4ccccc4c3=O)cc2)ccn1` to `O=C(NCCc1cccs1)c1cc(Oc2ccc(NC(=O)c3cn(-c4ccccc4)c4ccccc4c3=O)cc2F)ccn1`, the viability at 48 h, 10 µM rises from 72% to 99.8%.

Compared with `COc1ccc(-n2cc(C(=O)Nc3ccc(Oc4ccnc(C(=O)NCCc5cccs5)c4)cc3)c(=O)c3ccccc32)cc1`, `COc1ccc(-n2cc(C(=O)Nc3ccc(Oc4ccnc(C(=O)NCCc5cccs5)c4)c(F)c3)c(=O)c3ccccc32)cc1` is lower in viability at 48 h, 10 µM: 88.3% for the first, 85.3% for the second.

First: O=C(NCCc1cccs1)c1cc(Oc2ccc(NC(=O)c3cn(-c4ccc(Br)cc4F)c4ccccc4c3=O)cc2F)ccn1
Second: O=C(NCCc1cccs1)c1cc(Oc2ccc(NC(=O)c3cn(-c4ccc(F)c(Cl)c4)c4ccccc4c3=O)cc2F)ccn1
The viability at 48 h, 10 µM of the first is higher: 97.1% for the first, 77.7% for the second.

First: COc1ccc(-n2cc(C(=O)Nc3ccc(Oc4ccnc(C(=O)NCCCN5CCOCC5)c4)cc3)c(=O)c3ccccc32)cc1
Second: O=C(NCCCN1CCOCC1)c1cc(Oc2ccc(NC(=O)c3cn(-c4ccc(Cl)cc4)c4ccccc4c3=O)cc2)ccn1
The viability at 48 h, 10 µM of the first is lower: 87% for the first, greater than 100% for the second.

Compared with `O=C(NCCCN1CCOCC1)c1cc(Oc2ccc(NC(=O)c3cn(-c4ccc(Br)cc4)c4ccccc4c3=O)cc2F)ccn1`, `O=C(NCCCN1CCOCC1)c1cc(Oc2ccc(NC(=O)c3cn(-c4ccc(F)cc4)c4ccccc4c3=O)cc2F)ccn1` is higher in viability at 48 h, 10 µM: 91.3% for the first, 94.1% for the second.

Compared with `O=C(NCCCN1CCOCC1)c1cc(Oc2ccc(NC(=O)c3cn(-c4ccccc4)c4ccccc4c3=O)cc2F)ccn1`, `COc1ccc(-n2cc(C(=O)Nc3ccc(Oc4ccnc(C(=O)NCCCN5CCOCC5)c4)c(F)c3)c(=O)c3ccccc32)cc1` is lower in viability at 48 h, 10 µM: 83.2% for the first, 22.9% for the second.

Compared with `O=C(NCCc1cccs1)c1cc(Oc2ccc(NC(=O)c3cn(-c4ccc(Br)cc4F)c4ccccc4c3=O)cc2)ccn1`, `O=C(NCCc1cccs1)c1cc(Oc2ccc(NC(=O)c3cn(-c4ccc(F)c(Cl)c4)c4ccccc4c3=O)cc2)ccn1` is higher in viability at 48 h, 10 µM: 92.8% for the first, greater than 100% for the second.

Compared with `O=C(NCCCN1CCOCC1)c1cc(Oc2ccc(NC(=O)c3cn(-c4ccc(F)c(Cl)c4)c4ccccc4c3=O)cc2)ccn1`, `O=C(NCCCN1CCOCC1)c1cc(Oc2ccc(NC(=O)c3cn(-c4ccc(F)cc4)c4ccccc4c3=O)cc2)ccn1` is lower in viability at 48 h, 10 µM: greater than 100% for the first, 87.1% for the second.

Going from `O=C(NCCc1cccs1)c1cc(Oc2ccc(NC(=O)c3cn(-c4ccc(F)cc4)c4ccccc4c3=O)cc2F)ccn1` to `COc1cc(/C=C/C(=O)CC(=O)/C=C/c2ccc(O)c(OC)c2)ccc1O` [CURCUMIN], the viability at 48 h, 10 µM falls from greater than 100% to 94.9%.
